In one assay the target is T1, Human Kv1.5 channels (Homo sapiens, UniProt P22460).
T1 construct: expressed in transfected cells; host or cells: Xenopus laevis oocytes (injection of RNA synthesized in vitro)
T1 sequence (P22460 whole entry): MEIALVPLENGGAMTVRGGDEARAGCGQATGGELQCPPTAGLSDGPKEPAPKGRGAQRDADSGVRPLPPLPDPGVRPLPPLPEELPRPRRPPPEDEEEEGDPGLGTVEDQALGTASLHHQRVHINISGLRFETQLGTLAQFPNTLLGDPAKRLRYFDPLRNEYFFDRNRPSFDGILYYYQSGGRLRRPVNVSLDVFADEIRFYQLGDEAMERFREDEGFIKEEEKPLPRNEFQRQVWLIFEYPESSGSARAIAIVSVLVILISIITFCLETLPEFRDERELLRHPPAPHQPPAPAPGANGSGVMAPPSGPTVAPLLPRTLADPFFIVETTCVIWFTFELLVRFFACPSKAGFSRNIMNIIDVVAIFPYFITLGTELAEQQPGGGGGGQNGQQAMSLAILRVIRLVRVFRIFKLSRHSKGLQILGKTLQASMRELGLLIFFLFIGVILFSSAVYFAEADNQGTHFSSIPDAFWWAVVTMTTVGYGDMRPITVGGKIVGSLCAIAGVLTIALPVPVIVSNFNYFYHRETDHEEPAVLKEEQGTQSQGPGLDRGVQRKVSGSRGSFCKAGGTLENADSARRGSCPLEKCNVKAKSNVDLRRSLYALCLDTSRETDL
Description: Activity on the Kv1.5 channel, two-microelectrode voltage clamp on xenopus oocytes. The class given is cell-based. The conditions noted are these: human Kv1.5 expressed in Xenopus laevis oocytes; percent inhibition of control current fitted with Hill equation; room temperature; read-out: Kv1.5 IC-50. The procedure: Determination of the Activity on the Kv1.5 Channel
Human Kv1.5 channels were expressed in xenopus oocytes. For this purpose, firstly oocytes were isolated from Xenopus laevis and defolliculated. Kv1.5-encoding RNA synthesized in vitro was then injected into these oocytes. After Kv1.5 protein expression for 1-7 days, Kv1.5 currents were measured on the oocytes using the two-microelectrode voltage clamp technique. The Kv1.5 channels were in this case usually activated with voltage jumps lasting 500 ms to 0 mV and 40 mV. A solution of the following composition flowed through the bath: NaCl 96 mM, KCl 2 mM, CaCl2 1.8 mM, MgCl2 1 mM, HEPES 5 mM (titrated to pH 7.4 with NaOH). These experiments were carried out at room temperature. The following were employed for data acquisition and analysis: Geneclamp amplifier (Axon Instruments, Foster City, USA) and MacLab D/A converter and software (ADinstruments, Castle Hill, Australia). The substances of the invention were tested by adding them in various concentrations to the bath solution. The effects of the substances were calculated as percent inhibition of the Kv1.5 control current which was obtained when no substance was added to the solution. The data were then extrapolated using the Hill equation in order to determine the inhibitory concentrations IC50 for the respective substances.
Take `N#Cc1ccc(C(OCC2CC2)C(c2ccc(F)cc2)n2ccccc2=O)cc1` (racemic) [Example 11, 4-[1-Cyclopropylmethoxy-2-(4-fluorophenyl)-2-(2-oxo-2H-pyridin-1-yl)ethyl]benzonitrile]: the IC50 worked out at 2030 nM.

With `O=c1ccccn1[C@H](c1ccc(F)cc1)[C@H](OCC1CC1)c1ccc(F)cc1` (racemic) [Example 8, 1R′,2R′-1-[2-Cyclopropylmethoxy-1,2-bis(4-fluorophenyl)ethyl]-1H-pyridin-2-one], the IC50 was found to be 330 nM. Consider `O=c1ccc(F)cn1C(c1ccc(F)cc1)C(OCC1CC1)c1ccc(F)cc1` (racemic) [Example 16, 1-[2-Cyclopropylmethoxy-1,2-bis-(4-fluorophenyl)ethyl]-5-fluoro-1H-pyridin-2-one], for which the IC50 amounted to 4560 nM.

Regarding `COc1ccc([C@@H](OCC2CC2)[C@@H](c2ccc(F)cc2)n2ccccc2=O)cc1` (racemic) [Example 17, 1R′,2R′-1-[2-Cyclopropylmethoxy-1-(4-fluorophenyl)-2-(4-methoxyphenyl)ethyl]-1H-pyridin-2-one], the IC50 came to 1830 nM.

In the case of `O=c1ccc(F)cn1[C@H](c1ccccc1)[C@H](OCC1CC1)c1ccccc1` (racemic) [Example 12, 1R′,2R′-1-(2-Cyclopropylmethoxy-1,2-diphenylethyl)-5-fluoro-1H-pyridin-2-one], the IC50 came out at 1470 nM. As for `O=c1ccccn1C(c1ccc(F)cc1)C(OCC1CC1)c1ccc(Br)cc1` (racemic) [Example 10, 1-[2-(4-Bromophenyl)-2-cyclopropylmethoxy-1-(4-fluorophenyl)ethyl]-1H-pyridin-2-one], the IC50 is 870 nM. Turning to `O=c1ccccn1[C@H](c1ccccc1)[C@H](OCC1CC1)c1ccccc1` (racemic) [Example 1, 1R′,2R′-1-(2-Cyclopropylmethoxy-1,2-diphenylethyl)-1H-pyridin-2-one], the IC50 worked out at 380 nM. Consider `O=c1ccc(F)cn1C(c1ccccc1)C(OCC1CC1)c1ccccc1` (racemic) [Example 3, 1-(2-Cyclopropylmethoxy-1,2-diphenylethyl)-5-fluoro-1H-pyridin-2-one], for which the IC50 was determined as 780 nM. In the case of `COc1ccc([C@@H](OCC2CC2)[C@H](c2ccc(F)cc2)n2ccccc2=O)cc1` (racemic) [Example 2, 1R′,2S′-1-[2-Cyclopropylmethoxy-1-(4-fluorophenyl)-2-(4-methoxy-phenyl)ethyl]-1H-pyridin-2-one], the IC50 is 1300 nM. With `O=c1ccccn1C(c1ccccc1)C(OCC1CC1)c1ccc(Cl)cc1` (racemic) [Example 7, 1-[2-(4-Chlorophenyl)-2-cyclopropylmethoxy-1-phenylethyl]-1H-pyridin-2-one], the IC50 amounted to 180 nM. `N#Cc1ccc(O[C@H](c2ccc(F)cc2)[C@@H](c2ccc(F)cc2)n2cc(F)ccc2=O)cc1` (racemic) [Example 5, 1R′,2R′-5-Fluoro-1-(2-p-cyanophenoxy-1,2-di-p-fluorophenylethyl)-1H-pyridin-2-one]: the IC50 lay in the range of 20000 to 50000 nM. With `COc1ccc(CO[C@H](c2ccc(OC)cc2)[C@@H](c2ccc(F)cc2)n2ccccc2=O)cc1` (racemic) [Example 13, 1R′,2R′-1-[1-(4-Fluorophenyl)-2-(4-methoxybenzyloxy)-2-(4-methoxyphenyl)ethyl]-1H-pyridin-2-one], the IC50 turned out to be 4480 nM. Turning to `O=c1cccnn1C(c1ccccc1)C(OCC1CC1)c1ccc(Cl)cc1` (racemic) [Example 4, 2-[2-(4-Chlorophenyl)-2-cyclopropylmethoxy-1-phenylethyl]-2H-pyridazin-3-one], the IC50 was determined as 1050 nM.

As for `O=c1ccccn1C(c1ccc(F)cc1)C(OCC1CC1)c1ccc(F)cc1` (racemic) [Example 14, 1-[2-Cyclopropylmethoxy-1,2-bis-(4-fluorophenyl)ethyl]-1H-pyridin-2-one], the IC50 turned out to be 1400 nM. Same read-out and setting: the figure for `COc1ccc(CO[C@H](c2ccc(OC)cc2)[C@H](c2ccc(F)cc2)n2ccccc2=O)cc1` (racemic) [Example 18, 1R′,2S′-1-[1-(4-Fluorophenyl)-2-(4-methoxybenzyloxy)-2-(4-methoxyphenyl)ethyl]-1H-pyridin-2-one] is 2690 nM; for `O=c1ccc(F)cn1C(c1ccc(F)cc1)C(OC1CC1)c1ccc(F)cc1` (racemic) [Example 6, 1-[2-Cyclopropoxy-1,2-bis-(4-fluorophenyl)ethyl]-5-fluoro-1H-pyridin-2-one] it is 6480 nM; for `O=c1ccccn1[C@@H](c1ccc(F)cc1)[C@H](OCC1CC1)c1ccc(F)cc1` (racemic) [Example 9, 1R′,2S′-1-[2-Cyclopropylmethoxy-1,2-bis-(4-fluorophenyl)ethyl]-1H-pyridin-2-one] it is 410 nM. Regarding `N#Cc1ccc(COC(c2ccc(Cl)cc2)C(c2ccccc2)n2ccccc2=O)cc1` (racemic) [Example 15, 4-[1-(4-Chlorophenyl)-2-(2-oxo-2H-pyridin-1-yl)-2-phenylethoxymethyl]benzonitrile], the IC50 was found to be 2510 nM.

In another assay the target is Human TASK-1 channels (UniProt O14649). Description: Activity on the TASK-1 channel, two-microelectrode voltage clamp on xenopus oocytes. As to conditions: TASK-1 expressed in Xenopus laevis oocytes; percent inhibition of control current fitted with Hill equation; room temperature; read-out: mTask-1 IC-50. The assay is classed as cell-based. How it is done:
Determination of the Activity on the TASK-1 Channel
Human TASK-1 channels were expressed in xenopus oocytes. For this purpose, firstly oocytes were isolated from Xenopus laevis and defolliculated. TASK-1-encoding RNA synthesized in vitro was then injected into these oocytes. After TASK-1 protein expression for 2 days, TASK-1 currents were measured on the oocytes using the two-microelectrode voltage clamp technique. The TASK-1 channels were in this case usually activated with voltage jumps lasting 250 ms to 40 mV. A solution of the following composition flowed through the bath: NaCl 96 mM, KCl 2 mM, CaCl2 1.8 mM, MgCl2 1 mM, HEPES 5 mM (titrated to pH 7.4 with NaOH). These experiments were carried out at room temperature. The following were employed for data acquisition and analysis: Geneclamp amplifier (Axon Instruments, Foster City, USA) and MacLab D/A converter and software (ADinstruments, Castle Hill, Australia). The substances of the invention were tested by adding them in various concentrations to the bath solution. The effects of the substances were calculated as percent inhibition of the TASK-1 control current which was obtained when no substance was added to the solution. The data were then extrapolated using the Hill equation in order to determine the half-maximum inhibitory concentrations (IC50) for the respective substances.
Turning to `O=c1ccccn1[C@@H](c1ccc(F)cc1)[C@H](OCC1CC1)c1ccc(F)cc1` (racemic) [Example 9, 1R′,2S′-1-[2-Cyclopropylmethoxy-1,2-bis-(4-fluorophenyl)ethyl]-1H-pyridin-2-one], the IC50 stood at 3100 nM.

Source of the values: patent US8044074B2, “Substituted heterocycles, their use as medicament, and pharmaceutical preparations comprising them” (Sanofi-Aventis, priority 2005, dated 2011).
